Experimental data published in publication PMC10974743, “Design, Synthesis, and Biological Evaluation of Novel Phenoxy Acetic Acid Derivatives as Selective COX-2 Inhibitors Coupled with Comprehensive Bio-Pharmacological Inquiry, Histopathological Profiling, and Toxicological Scrutiny” (Molecules, 2024).
Entries after “also recorded” stand apart in the source; their conditions may differ. Read-outs that look alike come from different tables or passages of the source. Marks after values point to notes of the source that are not given here.

How the values were obtained:
TNF-α = TNF-α content of paw exudate by ELISA, carrageenan paw edema model; type: in vivo, Sprague Dawley rats; conditions: vs carrageenan group
Experimental: (§1) ELISA assessment assays were conducted as cited (Supplementary Materials, page 53).
(§2) In-vivo anti-inflammatory activity […]
(§3) cervical dislocation. […] The percentage
(§4) Weight of the left paw] ×100.
(§5) Assessment of inflammatory biomarkers using ELISA […]
(§6) content, using enzyme -linked immunosorbent assay (ELISA). The ELISA kits were purchased from CLOUD -CLONE CORP (CCC, USA) (Cat# SEA133Ra) and MyBioSource company (British Columbia, Canada) (Cat# MBS730592) respectively, and the assays were performed following the manufacturer' s instructions. Additionally, the protein content of the exudates was determined using the Bradford method.

PGE2 = PGE2 content of paw exudate by ELISA, carrageenan paw edema model; type: in vivo, Sprague Dawley rats; conditions: vs carrageenan group
Experimental: as §1, §2, §3, §4, §5, §6

[1] = system: nociceptive responses on hot plate; assay: Hot plate latency test (analgesic activity); type: in vivo, rats; conditions: for Hot plate latency period: plate 50 °C, mean ± SD, n = 6
Experimental: The hot plate latency test was performed according to the following procedures (Supplementary Materials, page 54). […]
In summary, thirty rats
The normal control group received 1% CMC, while the remaining groups were administered their respective reference or test compounds. Each rat was gently positioned on a heated plate set at 50 ◦C. The latency period for nociceptive responses, such as paw licking or jumping off the hot plate, was recorded at 30-, 60-, 90-, and 120 minutes post-administration of the reference drugs, test […]

[2] = system: paw tissue, carrageenan paw edema model; assay: Histopathological examination of paws, inflammatory cell infiltration score; type: in vivo, rats; conditions: for Paw histopathological finding: H&E staining, carrageenan paw edema
Experimental: The histopathological assessments were performed according to the following procedures (Supplementary Materials, page 54). […]
Histopathological examination
Thirty-six rats were separated into six groups of six rats each for histological assessment […]
groupings consisted of a control group, a carrageenan group, two groups for the reference drugs […]
protocols that were utilized in the in-vivo anti-inflammatory activity test were used. After a duration of 5 hours, the animals were euthanized, and their left paws were amputated. The paws were preserved in 10% neutral buffered formalin, trimmed, washed, dehydrated in increasing concentrations of ethyl alcohol, clarified in xylene, and ultimately embedded in paraffin. They were then sliced into 4-6µ thick slices, stained with Hematoxylin and Eosin, and examined under a light microscope. A scoring system was used to evaluate the degree of inflammation, dividing it into six categories ranging from 0 indicating no inflammation to 5 indicating severe inflammation.
Each score corresponded to a certain level of inflammation: 0 for no inflammation, 1 for mild inflammation, 2 for mild to moderate inflammation, 3 for moderate inflammation, 4 for moderate to severe inflammation, and 5 for severe inflammation.

[3] = Assessment of liver and kidney function (serum ALT, AST, creatinine, urea); type: in vivo, rats; parameters: Urea: unit not given here; conditions: mean ± SD; for Creatinine: n = 6, in mg/dL (unit assumed)
Experimental: These assessments were conducted following the manufacturer’s instructions (Supplementary Materials, page 55).
In-vivo anti-inflammatory activity
as §3, §4
Assessment of inflammatory biomarkers using ELISA

[4] = system: carrageenan-induced paw edema; assay: Carrageenan paw edema test (paw thickness, paw weight); conditions: for Paw thickness difference: oral; for Paw thickness difference / Paw Weight Increase: mean ± SD, n = 6; for Paw Weight Increase: right vs left paw, after 5 h
Experimental: The carrageenan paw edema test was conducted following established procedures as detailed (Supplementary Materials, page 53).
The carrageenan paw edema test was conducted following established procedures. In summary, seventy-two rats were randomly assigned to twelve groups, each comprising six rats.
These groups included normal controls, carrageenan controls (both receiving the vehicle; 1%
Acute inflammation was induced in the right hind paws of all rats one hour after oral administration of the respective compounds or vehicle. This was achieved by injecting a freshly prepared 0.1 mL carrageenan suspension (1% in normal saline) subplantarly into the right hind paw, except for the normal control group, which received a saline injection. Paw thickness was measured hourly (Ct) until the fifth hour (C5) post-carrageenan injection (C0). The hourly increase in paw thickness (paw thickness difference) was calculated by subtracting the initial measurement (C0) from the thickness at each hour (Ct), and the results were presented as the mean increase in paw thickness (mm). To evaluate anti-inflammatory effects, the percentage of inhibition for each standard and test compound was determined using the formula: percentage of inhibition (%) = [(Paw thickness difference of carrageenan group - Paw thickness difference of treated)/ Paw thickness difference of carrageenan group] × 100. […] The paws were then excised and weighed (both left and right). The percentage of weight increase between the left and right paws of each animal was calculated using the equation: Percentage of weight increase = [(Weight of the right paw - Weight of the left paw) / Weight of the left paw] ×100.

gastric mucosa = assay: Evaluation of ulcerogenic effects (macroscopic scores and gastric histopathology); conditions: for Gastric mucosa histopathological finding: H&E staining; for Ulcer Number Score / Ulcer Severity Score: mean ± SD; for Ulcer Number Score: n = 6; for Ulcer Severity Score: n = 6, scale 0 to 5
Experimental: The assessment of ulcerogenic effects was conducted following established procedures [42, 57]
Following the experimental period, the animals were euthanized using pentobarbital sodium (100 mg/kg), and blood was collected via jugular vein exsanguination for later evaluation of liver and kidney function, and subsequently sacrificed by cervical dislocation. […] Following this, the animals' stomachs were removed, inflated, and opened along the greater curvature to evaluate ulcerogenic effects.
B: Ulcer lesion severity scoring system
2.5 More than 10 small ulcers
3 1 marked ulcer plus 0 to 4 small ulcers
3.5 1 marked ulcer plus 5 or more small ulcers
4 2 marked ulcers plus 0 to 4 small ulcers
4.5 2 marked ulcers plus 5 or more small ulcers
5 3 or more marked ulcers
The statistical analysis of the data was conducted using GraphPad Prism 9.5.1 Demo
(GraphPad Software, San Diego, CA). One -way analysis of variance (ANOVA) was utilized to
evaluate differences among the various groups, except for paw edema volume, which un derwent
analysis using two -way ANOVA. Post -hoc analysis was performed using Tukey's multiple
significance set at P < 0.05

ovine COX-1 = biological target: T1, ovine COX-1 (Ovis aries, UniProt P05979); assay: In vitro COX-1 inhibition assay (Cayman colorimetric COX inhibitor screening kit)
T1 sequence (P05979 25-600): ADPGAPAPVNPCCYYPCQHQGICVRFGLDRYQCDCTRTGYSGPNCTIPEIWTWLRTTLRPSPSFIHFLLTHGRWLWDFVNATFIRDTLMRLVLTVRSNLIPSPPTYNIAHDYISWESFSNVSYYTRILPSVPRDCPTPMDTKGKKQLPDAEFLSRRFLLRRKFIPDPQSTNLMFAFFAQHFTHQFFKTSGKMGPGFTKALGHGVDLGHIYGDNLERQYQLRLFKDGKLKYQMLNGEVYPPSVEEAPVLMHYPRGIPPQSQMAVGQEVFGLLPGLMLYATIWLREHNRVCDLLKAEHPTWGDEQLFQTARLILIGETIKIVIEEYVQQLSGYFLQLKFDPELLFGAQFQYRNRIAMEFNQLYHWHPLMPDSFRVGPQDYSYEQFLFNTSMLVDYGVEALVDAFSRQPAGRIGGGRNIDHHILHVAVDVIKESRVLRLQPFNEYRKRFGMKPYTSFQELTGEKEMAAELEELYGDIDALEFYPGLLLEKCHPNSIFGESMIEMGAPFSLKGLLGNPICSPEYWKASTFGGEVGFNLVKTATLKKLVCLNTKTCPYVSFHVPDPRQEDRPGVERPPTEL
Experimental: (§7) The in vitro enzyme assays were performed at the Biochemistry Department, Cairo
(§8) General Hospital, Egypt. Cayman® colorimetric COX (ovine) inhibitor screening assay kit (Item
(§9) enzymes in presence of all newly compounds. Generally, this kit is dependent on the reductive
(§10) reaction of COX. A specific antibody binds to PGH2 produced by COX and is further quantified
(§11) by the ELISA technique as previously reported. After that, the selectivity index (SI) was calculated
as the following equation:
𝐒𝐞𝐥𝐞𝐜𝐭𝐢𝐯𝐢𝐭𝐲 𝐢𝐧𝐝𝐞𝐱 (𝐒𝐈) = 𝐈𝐂₅₀𝐨𝐟 𝐂𝐎𝐗 − 𝟏

human COX-2 = biological target: T2, human COX-2 (Homo sapiens, UniProt P35354); assay: In vitro COX-2 inhibition assay (Cayman colorimetric COX inhibitor screening kit); conditions: for SI (COX-2 selectivity index): COX-1 (IC50)/COX-2 (IC50); for IC50: COX-2 IC50, mean ± SEM, n = 3
T2 sequence (P35354 18-604): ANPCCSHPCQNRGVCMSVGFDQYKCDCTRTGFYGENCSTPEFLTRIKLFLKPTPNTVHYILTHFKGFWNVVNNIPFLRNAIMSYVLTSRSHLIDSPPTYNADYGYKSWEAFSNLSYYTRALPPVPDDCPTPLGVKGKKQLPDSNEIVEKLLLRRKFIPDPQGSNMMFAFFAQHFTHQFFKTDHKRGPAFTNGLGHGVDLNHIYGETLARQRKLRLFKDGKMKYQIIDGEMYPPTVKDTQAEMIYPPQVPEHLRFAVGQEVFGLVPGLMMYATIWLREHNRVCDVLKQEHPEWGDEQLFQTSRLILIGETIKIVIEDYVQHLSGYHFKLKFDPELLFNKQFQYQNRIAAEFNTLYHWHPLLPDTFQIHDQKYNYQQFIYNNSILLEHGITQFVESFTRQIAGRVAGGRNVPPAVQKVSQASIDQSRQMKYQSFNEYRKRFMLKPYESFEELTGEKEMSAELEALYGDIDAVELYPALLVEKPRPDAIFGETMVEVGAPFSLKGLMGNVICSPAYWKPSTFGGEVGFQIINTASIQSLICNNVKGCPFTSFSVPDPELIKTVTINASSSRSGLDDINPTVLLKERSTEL
Experimental: as §7, §8, §9, §10, §11
as the following equation:
𝐒𝐞𝐥𝐞𝐜𝐭𝐢𝐯𝐢𝐭𝐲 𝐢𝐧𝐝𝐞𝐱 (𝐒𝐈) = 𝐈𝐂₅₀𝐨𝐟 𝐂𝐎𝐗 − 𝟏

COX-2 = conditions: cited from earlier work

## Cc1ccc(-c2cc(C(F)(F)F)nn2-c2ccc(S(N)(=O)=O)cc2)cc1 [Celecoxib, celecoxib, reference compound]
TNF-α
  Reduction of TNF-α exudate content: 63.52%
PGE2
  Reduction of PGE2 exudate content: 60.16%
[1]; 30 min post-administration
  Hot plate latency period: 8.39 ± 0.22 ^a
[1]; 60 min post-administration
  Hot plate latency period: 9.95 ± 0.23 ^a
[1]; 90 min post-administration
  Hot plate latency period: 11.63 ± 0.60 ^a
[1]; 120 min mark
  Increase in latency period: 46.70%
[1]; 120 min post-administration
  Hot plate latency period: 13.88 ± 0.41 ^a
[2]
  Paw histopathological finding: dermal infiltration by high number of inflammatory cells mainly neutrophils and lymphocytes; also recorded: significant dermal infiltration by a large quantity of inflammatory cells
[3]; n = 6
  ALT: 92.94 ± 5.00 IU/L
  AST: 101.23 ± 10.04 IU/L
  Urea: 26.28 ± 3.11
[3]
  Creatinine: 0.73 ± 0.03
[4]; 1st h after carrageenan
  Paw thickness difference: 1.4 ± 0.38 mm
[4]; 1st h, vs carrageenan group
  Percentage of inhibition of paw thickness: 29.31%
[4]; 2nd h after carrageenan
  Paw thickness difference: 2.36 ± 0.51 mm
[4]; 2nd h, vs carrageenan group
  Percentage of inhibition of paw thickness: 28.34%
[4]; 3rd h after carrageenan
  Paw thickness difference: 2.83 ± 0.43 mm
[4]; 3rd h, vs carrageenan group
  Percentage of inhibition of paw thickness: 33%
[4]; 4th h after carrageenan
  Paw thickness difference: 3.01 ± 0.57 mm
[4]; 4th h, vs carrageenan group
  Percentage of inhibition of paw thickness: 40.39%
[4]; 5th h after carrageenan
  Paw thickness difference: 3.10 ± 0.23 mm
[4]; 5th h, vs carrageenan group
  Percentage of inhibition of paw thickness: 41.65%
[4]
  Paw Weight Increase: 29.95 ± 2.20 ^ab %
Gastric mucosa
  Gastric mucosa histopathological finding: ulcer formation with eroded gastric mucosa; also recorded: developed ulcers with degraded gastric mucosa
  Ulcer Number Score: 1.00 ± 0.63
  Ulcer Severity Score: 0.75 ± 0.52

## O=C(O)COc1ccc(Br)cc1C=NNC(=O)c1ccc(Cl)cc1 [Compound 5f, 2-(4-Bromo-2-((2-(4-chlorobenzoyl)hydrazineylidene)methyl)phenoxy)acetic acid]
TNF-α
  Reduction of TNF-α exudate content: 61.04%
PGE2
  Reduction of PGE2 exudate content: 60.58%
[1]; 30 min mark
  Increase in latency period: 39.43%
[1]; 30 min post-administration
  Hot plate latency period: 8.99 ± 0.38 ^abc
[1]; 60 min post-administration
  Hot plate latency period: 10.59 ± 0.3 ^abc
[1]; 90 min post-administration
  Hot plate latency period: 12.48 ± 0.65 ^ab
[1]; 120 min mark
  Increase in latency period: 49.50%
[1]; 120 min post-administration
  Hot plate latency period: 14.15 ± 0.38 ^a
[2]
  Paw histopathological finding: infiltration by a few numbers of inflammatory cells mainly eosinophils and lymphocytes; also recorded: dermal edema with limited infiltration of inflammatory cells
[2]; vs carrageenan group, paw, 5 hours
  Reduction in inflammatory cell infiltration score: 70.37%
[3]; n = 6
  ALT: 92.76 ± 3.83 IU/L
  AST: 93.69 ± 5.26 IU/L
  AST/ALT: 1.01 ± 0.08
  Urea: 26.37 ± 2.48
[3]
  Creatinine: 0.67 ± 0.04
[4]; 1st h after carrageenan
  Paw thickness difference: 0.83 ± 0.15 mm
[4]; 1st h, vs carrageenan group
  Percentage of inhibition of paw thickness: 58.11%
[4]; 2nd h after carrageenan
  Paw thickness difference: 1.65 ± 0.29 mm
[4]; 2nd h, vs carrageenan group
  Percentage of inhibition of paw thickness: 49.85%
[4]; 3rd h after carrageenan
  Paw thickness difference: 2.32 ± 0.17 mm
[4]; 3rd h, vs carrageenan group
  Percentage of inhibition of paw thickness: 45.05%
[4]; 4th h after carrageenan
  Paw thickness difference: 2.68 ± 0.12 mm
[4]; 4th h, vs carrageenan group
  Percentage of inhibition of paw thickness: 46.9%
[4]; 5th h after carrageenan
  Paw thickness difference: 2.84 ± 0.13 mm
[4]
  Paw Weight Increase: 29.85 ± 3.88 ^ab %
[4]; vs carrageenan group
  Inhibition of percentage of paw weight increase: 68.26%
Ovine COX-1
  IC50: 8000 ± 200 nM
Human COX-2
  SI (COX-2 selectivity index): 133.34
  IC50: 60 ± 10 nM
Gastric mucosa
  Gastric mucosa histopathological finding: normal histological structure of gastric mucosa; also recorded: normal histological structure of the stomach mucosa
  Ulcer Number Score: 0.50 ± 0.55 ^d
  Ulcer Severity Score: 0.33 ± 0.41 ^d

## O=C(O)COc1ccccc1C=NNC(=O)CNC(=O)c1ccccc1 [Compound 13a, 2-(2-((2-(Benzoylglycyl)hydrazineylidene)methyl)phenoxy)acetic acid]
other
  melting point: 210 to 211 °C
Ovine COX-1
  IC50: 8430 ± 120 nM
Human COX-2
  SI (COX-2 selectivity index): 36.65
  IC50: 230 ± 60 nM

## O=C(O)COc1ccc(Br)cc1C=NNC(=O)CNC(=O)c1ccccc1 [Compound 13b, 2-(2-((2-(Benzoylglycyl)hydrazineylidene)methyl)-4-bromophenoxy)acetic acid]
other
  melting point: 248 to 250 °C
Ovine COX-1
  IC50: 9930 ± 120 nM
Human COX-2
  SI (COX-2 selectivity index): 76.38
  IC50: 130 ± 60 nM

## NS(=O)(=O)c1ccc(-n2nc(C(F)(F)F)cc2-c2ccc(Br)cc2)cc1 [SC-558]
COX-2
  Selectivity for COX-2 over COX-1: 1900 fold

## O=C(O)COc1ccc(/C=C2\SC(N3N=C(c4ccc(Cl)cc4)CC3c3ccccc3)=NC2=O)cc1 (stereo not shown) [XIV]
COX-2; earlier work of the authors
  IC50: 60 nM

## Cc1ccc(-c2ncc(Cl)cc2-c2ccc(S(C)(=O)=O)cc2)cn1 [etoricoxib]
COX-2
  IC50: 5000 nM

## CS(=O)(=O)c1ccc(C2=C(c3ccccc3)C(=O)OC2)cc1 [rofecoxib]
COX-2
  IC50: 500 nM
